Laboratory results from US10377755B2, “BCL-2 inhibitors” (Newave Pharmaceutical Inc., priority 2016, dated 2019).
Blank lines part the entries; values can stand above or below the molecule they belong to.

Experiments:
[1] = biological target: Bcl-2 (Homo sapiens (Human), UniProt P10415); experiment: Bcl-2 competition binding (fluorescence polarization) assay; conditions: BH3 peptide, 3 hours incubation at room temperature
Experimental: Biological Example 1: Bcl-2 Competition Binding (Fluorescence Polarization) Assay
This binding assay was performed in 96-well plate and with each assay contained 15 and 30 nM of labeled peptide and purified Bcl-2 protein (purchased from R&D Systems, Inc). The assay buffer contained 20 mM Hepes (pH 7.0), 50 mM KCl, 5 mM MgCl2, 20 mM Na2MoO4, 0.1 mg/ml Bovine Gamma Globulin and 0.01% NP40. Compounds were diluted in DMSO and added to the final assay with concentration range from 20 uM to 2 nM. The polarization degree (mP) value was determined by BioTek Synergy II with background subtraction after 3 hours of incubation at room temperature. IC50 was calculated using Prism software with sigmoidal dose-response curve fitting. ABT-737 was used as reference compound. Such assays, carried out with a range of doses of test compounds, allow the determination of an approximate IC50 value.

[2] = test system: RS4;11; experiment: In vitro anti-proliferation assay (ATPlite) in BCL-2-dependent acute lymphoblastic leukemia cell line RS4;11; type: cell-based; conditions: Homo sapiens, about 72 hours, 5% FBS
Experimental: Biological Example 2: In Vitro Anti-Proliferation Assay in BCL-2-Dependent Acute Lymphoblastic Leukemia Cell Line RS4;11
(§1) Cell antiproliferation is assayed by PerkinElmer ATPlite™ Luminescence Assay System. Briefly, the various test cancer cell lines are plated at a density of about 1×10^4 cells per well in Costar 96-well plates, and are incubated with different concentrations of compounds for about 72 hours in medium supplemented with 5% FBS. One lyophilized substrate solution vial is then reconstituted by adding 5 mL of substrate buffer solution, and is agitated gently until the solution is homogeneous. About 50 μL of mammalian cell lysis solution is added to 100 μL of cell suspension per well of a microplate, and the plate is shaken for about five minutes in an orbital shaker at ˜700 rpm. This procedure is used to lyse the cells and to stabilize the ATP. Next, 50 μL substrate solution is added to the wells and microplate is shaken for five minutes in an orbital shaker at ˜700 rpm. Finally, the luminescence is measured by a PerkinElmer TopCount® Microplate Scintillation Counter. Such assays, carried out with a range of doses of test compounds, allow the determination of the cellular anti-antiproliferative IC50 of the compounds of the present invention. The following table lists the IC50 values of certain compounds of the invention.

[3] = test system: H146; experiment: In vitro anti-proliferation assay (ATPlite) in BCL-XL-dependent small cell lung cancer cell line H146; type: cell-based; conditions: for IC50: Homo sapiens, NCI-H146, about 72 hours, 5% FBS
Experimental: as §1, with “invention.” for “invention. The following table lists the IC50 values of certain compounds of the invention.”

[4] = test system: SCLC H146 cell line; conditions: read-out: IC50 against SCLC H146 cell line; cited from earlier work
[5] = test system: H345 xenograft; conditions: 100 mg/kg/day, H345 xenograft model; cited from earlier work
[6] = test system: xenograft models of small-cell lung cancer and acute lymphoblastic leukemia; conditions: single agent; cited from earlier work
[7] = biological target: Bcl-w (Homo sapiens (Human), UniProt Q92843); conditions: cited from earlier work
[8] = test system: circulating platelets; conditions: clinical trial, patients; cited from earlier work
[9] = cited from earlier work
[10] = cited from earlier work; remark: listed apart in the source

Chain of Bcl-2 (P10415 whole entry): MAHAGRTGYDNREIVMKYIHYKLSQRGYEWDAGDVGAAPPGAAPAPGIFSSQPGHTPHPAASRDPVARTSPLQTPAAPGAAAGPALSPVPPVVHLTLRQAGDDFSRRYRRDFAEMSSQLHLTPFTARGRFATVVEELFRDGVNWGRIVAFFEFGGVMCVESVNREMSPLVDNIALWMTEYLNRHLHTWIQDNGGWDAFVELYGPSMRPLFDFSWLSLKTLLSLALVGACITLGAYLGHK
Chain of Bcl-w (Q92843 whole entry): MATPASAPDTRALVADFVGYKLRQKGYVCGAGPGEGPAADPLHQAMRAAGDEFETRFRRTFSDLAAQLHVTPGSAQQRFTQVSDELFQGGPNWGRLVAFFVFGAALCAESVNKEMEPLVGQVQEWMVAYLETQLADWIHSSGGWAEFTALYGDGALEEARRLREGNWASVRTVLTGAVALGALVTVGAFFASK

SMILES: CC1(C)CCC(CN2CCN(c3ccc(C(=O)NS(=O)(=O)c4ccc(OCC5(F)CCN(C6COC6)CC5)c([N+](=O)[O-])c4)c(-n4ncc5nc6[nH]ccc6cc54)c3)CC2)=C(c2ccc(Cl)cc2)C1 [Example 17, 4-(4-((4′-chloro-5,5-dimethyl-3,4,5,6-tetrahydro-[1,1′-biphenyl]-2-yl)methyl)piperazin-1-yl)-N-((4-((4-fluoro-1-(oxetan-3-yl)piperidin-4-yl)methoxy)-3-nitrophenyl)sulfonyl)-2-(pyrazolo[4,3-b]pyrrolo[3,2-e]pyridin-1(5H)-yl)benzamide]
IC50 [1]: < 10 nM

SMILES: CC1(C)CCC(CN2CCN(c3ccc(C(=O)NS(=O)(=O)c4ccc(NCC5CCOCC5)c([N+](=O)[O-])c4)c(-n4ncc5nc6[nH]ccc6cc54)c3)CC2)=C(c2ccc(Cl)cc2)C1 [Example 4, 4-(4-((4′-chloro-5,5-dimethyl-3,4,5,6-tetrahydro-[1,1′-biphenyl]-2-yl)methyl)piperazin-1-yl)-N-((3-nitro-4-(((tetrahydro-2H-pyran-4-yl)methyl)amino)phenyl)sulfonyl)-2-(pyrazolo[4,3-b]pyrrolo[3,2-e]pyridin-1(5H)-yl)benzamide]
IC50 [1]: < 10 nM
IC50 [2]: < 15 nM
BCL-2 selectivity concluded from H146 IC50 ([3]; BCL-XL dependent cell line H146): BCL-2 selective inhibitor
IC50 [3]: > 2000 nM

SMILES: CC1(C)CCC(CN2CCN(c3ccc(C(=O)NS(=O)(=O)c4ccc(NCC5(F)CCN(C6COC6)CC5)c([N+](=O)[O-])c4)c(-n4ncc5nc6[nH]ccc6cc54)c3)CC2)=C(c2ccc(Cl)cc2)C1 [Example 14, 4-(4-((4′-chloro-5,5-dimethyl-3,4,5,6-tetrahydro-[1,1′-biphenyl]-2-yl)methyl)piperazin-1-yl)-N-((4-(((4-fluoro-1-(oxetan-3-yl)piperidin-4-yl)methyl)amino)-3-nitrophenyl)sulfonyl)-2-(pyrazolo[4,3-b]pyrrolo[3,2-e]pyridin-1(5H)-yl)benzamide]
IC50 [1]: < 10 nM

SMILES: CC1(C)CCC(CN2CCN(c3ccc(C(=O)NS(=O)(=O)c4ccc(NC[C@@H]5CN(C6COC6)CCO5)c([N+](=O)[O-])c4)c(-n4ncc5nc6[nH]ccc6cc54)c3)CC2)=C(c2ccc(Cl)cc2)C1 [Example 15, (R)-4-(4-((4′-chloro-5,5-dimethyl-3,4,5,6-tetrahydro-[1,1′-biphenyl]-2-yl)methyl)piperazin-1-yl)-N-((3-nitro-4-(((4-(oxetan-3-yl)morpholin-2-yl)methyl)amino)phenyl)sulfonyl)-2-(pyrazolo[4,3-b]pyrrolo[3,2-e]pyridin-1(5H)-yl)benzamide]
IC50 [1]: < 10 nM

SMILES: CC1(C)CCC(CN2CCN(c3ccc(C(=O)NS(=O)(=O)c4ccc(NCC5(F)CCOCC5)c([N+](=O)[O-])c4)c(-n4ncc5nc6[nH]ccc6cc54)c3)CC2)=C(c2ccc(Cl)cc2)C1 [Example 12, 4-(4-((4′-chloro-5,5-dimethyl-3,4,5,6-tetrahydro-[1,1′-biphenyl]-2-yl)methyl)piperazin-1-yl)-N-((4-(((4-fluorotetrahydro-2H-pyran-4-yl)methyl)amino)-3-nitrophenyl)sulfonyl)-2-(pyrazolo[4,3-b]pyrrolo[3,2-e]pyridin-1(5H)-yl)benzamide]
IC50 [1]: < 10 nM
IC50 [2]: < 15 nM
IC50 [3]: > 2000 nM

SMILES: CN(C)CC[C@H](CSc1ccccc1)Nc1ccc(S(=O)(=O)NC(=O)c2ccc(N3CCN(Cc4ccccc4-c4ccc(Cl)cc4)CC3)cc2)cc1[N+](=O)[O-] [ABT-737]
oral bioavailability [9]: not orally bioavailable
aqueous solubility [10]: low

Second part, led by results:

IC50 [1]: < 10 nM
SMILES: CC1(C)CCC(CN2CCN(c3ccc(C(=O)NS(=O)(=O)c4ccc(N5CCOCC5)c([N+](=O)[O-])c4)c(-n4ncc5nc6[nH]ccc6cc54)c3)CC2)=C(c2ccc(Cl)cc2)C1 [Example 8, 4-(4-((4′-chloro-5,5-dimethyl-3,4,5,6-tetrahydro-[1,1′-biphenyl]-2-yl)methyl)piperazin-1-yl)-N-((4-morpholino-3-nitrophenyl)sulfonyl)-2-(pyrazolo[4,3-b]pyrrolo[3,2-e]pyridin-1(5H)-yl)benzamide]

IC50 [1]: < 10 nM
SMILES: CN1CCC(F)(CNc2ccc(S(=O)(=O)NC(=O)c3ccc(N4CCN(CC5=C(c6ccc(Cl)cc6)CC(C)(C)CC5)CC4)cc3-n3ncc4nc5[nH]ccc5cc43)cc2[N+](=O)[O-])CC1 [Example 16, 4-(4-((4′-chloro-5,5-dimethyl-3,4,5,6-tetrahydro-[1,1′-biphenyl]-2-yl)methyl)piperazin-1-yl)-N-((4-(((4-fluoro-1-methylpiperidin-4-yl)methyl)amino)-3-nitrophenyl)sulfonyl)-2-(pyrazolo[4,3-b]pyrrolo[3,2-e]pyridin-1(5H)-yl)benzamide]

IC50 [3]: 60 nM
SMILES: CC1(C)CCC(c2ccc(Cl)cc2)=C(CN2CCN(c3ccc(C(=O)NS(=O)(=O)c4ccc(N[C@H](CCN5CCOCC5)CSc5ccccc5)c(S(=O)(=O)C(F)(F)F)c4)cc3)CC2)C1 [ABT-263]
IC50 [4]: 110 nM
TGI [5]: 80%
treated tumors indicating at least a 50% reduction in tumor volume [5]: 20%
tumor response, oral administration alone [6]: complete tumor regressions
Ki [7]: ≤ 1 nM
effect on number of circulating platelets [8]: rapid, concentration-dependent decrease

IC50 [1]: < 10 nM
SMILES: CN1CCC(CNc2ccc(S(=O)(=O)NC(=O)c3ccc(N4CCN(CC5=C(c6ccc(Cl)cc6)CC(C)(C)CC5)CC4)cc3-n3ncc4nc5[nH]ccc5cc43)cc2[N+](=O)[O-])CC1 [Example 13, 4-(4-((4′-chloro-5,5-dimethyl-3,4,5,6-tetrahydro-[1,1′-biphenyl]-2-yl)methyl)piperazin-1-yl)-N-((4-(((1-methylpiperidin-4-yl)methyl)amino)-3-nitrophenyl)sulfonyl)-2-(pyrazolo[4,3-b]pyrrolo[3,2-e]pyridin-1(5H)-yl)benzamide]

IC50 [1]: < 10 nM
SMILES: CC1(C)CCC(CN2CCN(c3ccc(C(=O)NS(=O)(=O)c4ccc(SCC5CCOCC5)c([N+](=O)[O-])c4)c(-n4ncc5nc6[nH]ccc6cc54)c3)CC2)=C(c2ccc(Cl)cc2)C1 [Example 11, 4-(4-((4′-chloro-5,5-dimethyl-3,4,5,6-tetrahydro-[1,1′-biphenyl]-2-yl)methyl)piperazin-1-yl)-N-((3-nitro-4-(((tetrahydro-2H-pyran-4-yl)methyl)thio)phenyl)sulfonyl)-2-(pyrazolo[4,3-b]pyrrolo[3,2-e]pyridin-1(5H)-yl)benzamide]

IC50 [1]: < 10 nM
SMILES: CC1(C)CCC(CN2CCN(c3ccc(C(=O)NS(=O)(=O)c4ccc(OCC5CCOCC5)c([N+](=O)[O-])c4)c(-n4ncc5nc6[nH]ccc6cc54)c3)CC2)=C(c2ccc(Cl)cc2)C1 [Example 18, 4-(4-((4′-chloro-5,5-dimethyl-3,4,5,6-tetrahydro-[1,1′-biphenyl]-2-yl)methyl)piperazin-1-yl)-N-((3-nitro-4-((tetrahydro-2H-pyran-4-yl)methoxy)phenyl)sulfonyl)-2-(pyrazolo[4,3-b]pyrrolo[3,2-e]pyridin-1(5H)-yl)benzamide]
